# From paper PMC10786919, “Design-rules for stapled peptides with in vivo activity and their application to Mdm2/X antagonists” (Nature Communications, 2024)
# Read-outs that look alike come from different tables or passages of the source. Positions of bridges follow the written chain, without caps; N, C: chain ends. Non-standard residues stand in square brackets, D forms with d. Residues, ends and D or L forms follow the SMILES beside them. Lys(N3) = [N-]=[N+]=NCCCC[C@H](N)C(=O)O; 2Nal = N[C@@H](Cc1ccc2ccccc2c1)C(=O)O; R8 = C=CCCCCCC[C@@](C)(N)C(=O)O; αMeE = C[C@](N)(CCC(=O)O)C(=O)O; Cba = N[C@@H](CC1CCC1)C(=O)O; S5 = C=CCCC[C@](C)(N)C(=O)O; Ahx = NCCCCCC(=O)O; βAla = NCCC(=O)O
# Key:
# [1] = biological target: T1, human Mdm2 1–125 (Homo sapiens, UniProt Q00987); experiment: Mdm2 binding by competitive fluorescence anisotropy assay (FP binding); details: read-out: FP binding assay KD
# T1 construct: GST (N); His6 (internal); TEV cleavage site (ENLYFQG) (internal); made in house; host or cells: BL21 (DE3) Rosetta T1R Escherichia coli
# T1 sequence (Q00987 with tags, fused parts or gaps): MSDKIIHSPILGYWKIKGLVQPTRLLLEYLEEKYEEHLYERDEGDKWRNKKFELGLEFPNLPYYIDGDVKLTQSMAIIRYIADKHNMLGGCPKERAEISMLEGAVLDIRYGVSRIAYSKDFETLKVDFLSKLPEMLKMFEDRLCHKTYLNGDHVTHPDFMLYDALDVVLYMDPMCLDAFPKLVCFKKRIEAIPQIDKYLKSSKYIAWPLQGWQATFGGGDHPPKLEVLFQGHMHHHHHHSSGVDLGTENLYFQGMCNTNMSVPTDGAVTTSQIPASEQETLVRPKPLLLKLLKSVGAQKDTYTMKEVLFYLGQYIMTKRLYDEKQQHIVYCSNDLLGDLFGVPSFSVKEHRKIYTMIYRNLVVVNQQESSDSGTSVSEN
# From the text: The TEV (tobacco etch virus) cleavage site was changed from ENLYFQS to ENLYFQG to give a fusion protein with the following sequence:
# [P] is the protein concentration (Mdm2), [L] is the labeled peptide concentration, r is the anisotropy measured, r0 is the anisotropy of the free peptide, rb is the anisotropy of the Mdm2–FAM-labeled peptide complex, Kd is the dissociation constant, [L]t is the total FAM labeled peptide concentration, and [P]t is the total Mdm2 concentration. […] This value was then used to determine apparent Kd values of the respective competing ligands in subsequent competition assays in fluorescence anisotropy experiments.
# The competing molecules were then titrated against the complex of the FAM-labeled peptide and protein. Apparent Kd values were determined by fitting the experimental data to equations shown below:2 r=ro+(rb−ro)×2(d^2−3e)cos(θ/3)−9/3Kd1+2(d^2−3e)cos(θ/3)−d 3 d=Kd1+Kd2+[L]st+[L]t−Pt 4 e=Lt−PtKd1+Lst+PtKd2+Kd1Kd2 5 f=−Kd1Kd2[P]t 6 θ=arcos−2d^3+9de−27f/2(d^2−3e)^3
# [L]st and [L]t denote labeled ligand and total unlabeled ligand input concentrations, respectively. Kd2 is the dissociation constant of the interaction between the unlabeled ligand and the protein. In all competition experiments, it is assumed that [P]t > [L]st, otherwise considerable amounts of free labeled ligand would always be present and would interfere with measurements. […] The FAM-labeled peptide was dissolved in dimethyl sulfoxide (DMSO) at 1 mM and diluted into experimental buffer. Readings were carried out with an Envision Multilabel Reader (PerkinElmer). […] Curve-fitting was carried out using Prism 4.0 (GraphPad). […] Negative control titrations of the ligands under investigation were also carried out with the fluorescently labeled peptide (in the absence of Mdm2) to ensure no interactions were occurring between the ligands and the FAM-labeled peptide. […] Measurements were taken a minimum of three times (biological replicates) and values are reported as geometric means of the replicates.
# [2] = system: Jump-In T-REx CHO-K1 BLA cells; experiment: cells; assay type: cell-based; details: for EC50: read-out: TETCHO: Counterscreen EC50
# [3] = Lactate dehydrogenase (LDH) release assay; assay type: cell-based
# Procedure, shortened: (§1)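 LDH release, fluorometric membrane-integrity read-out; HCT116 with stable p53-responsive β-lactamase reporter; 8000 cells/well; 0.5% DMSO final; geometric mean, n≥3 biological replicates.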
# [4] = system: p53 responsive β-lactamase reporter in HCT116 cells; experiment: cells; assay type: cell-based; details: read-out: p53 reporter assay EC50
# Procedure, shortened: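 Read-out used the ToxBLAzer Dual Screen for β-lactamase driven by a stably integrated p53-responsive reporter. Assay: 8000 HCT116 cells per well at 0.5% final DMSO. Reported numbers are geometric means over a minimum of three biological replicates.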
# [5] = Experimental LogD (partition coefficient); details: for logD: not stated, Partition Coeff LogD
# [6] = system: Ca Ski cell line; details: 72 h
# Procedure, shortened: (§2)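 Compound dilution series (10 points, 3-fold, 10 mM top stock in DMSO) tested on overnight-plated Ca Ski cells in RPMI1640/10% FBS and on blasticidin-selected p53RE-bla HCT-116 cells in McCoy's 5A; read-out was CellTiter-Glo 2.0 luminescence after room-temperature equilibration.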
# [7] = system: CellSensor p53RE-bla HCT-116 Cell Line; details: 72 h
# Procedure, shortened: as §2
# [8] = Solubility assay (kinetic solubility, PBS pH 7); assay type: physicochemical; details: for solubility kinetic: read-out: Solubility
# Procedure, shortened: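 Next, measure peak areas of sample and standard. Finally, multiply their ratio by the standard concentration to obtain solubility (µM).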
# [9] = EPSA; assay type: physicochemical
# [10] = in vitro; details: Nanoclick permeability assay EC50
# Procedure, shortened: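 Azido-peptide permeability was read as loss of NanoBRET signal (donor 450 nm, acceptor 610 nm) after adding NanoBret618-azide at 10 μM final.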
# [11] = system: HCT116 cells; experiment: Lactate dehydrogenase (LDH) release assay; assay type: cell-based
# Procedure, shortened: as §1
# [12] = pH 7, aqueous buffer, kinetic from dmso stock, pH 7, PBS
SMILES,Kd [1],TETCHO: Counterscreen % Effect ([2]; 0% FBS 4Hr),EC50 ([2]; 0% FBS 4Hr),EC50 ([3]; LDH: Cytotoxicity assay EC50),EC50 ([4]; 0% FBS 4Hr),logD [5],EC50 ([3]; LDH: Cytotoxicity assay: EC50),EC50 [6],EC50 [7],"solubility kinetic [8, 12]",EPSA ([9]; EPSA),cell entry EC50 [10],LDH: Cytotoxicity assay % Effect [11],also measured
CC(=O)N[C@@H](CCCCN)C(=O)N[C@@H](CCCCN)C(=O)N[C@@H](CCCCN)C(=O)NCCCCCC(=O)N[C@H](C(=O)N[C@@H](CO)C(=O)N[C@@H](Cc1ccccc1)C(=O)N[C@]1(C)CCCCCCC=CCCC[C@@](C)(C(=O)N[C@@H](CCC(=O)O)C(=O)N[C@@H](CC(N)=O)C(=O)N[C@@H](Cc2ccccc2)C(N)=O)NC(=O)[C@H](CC(C)C)NC(=O)[C@H](CC(C)C)NC(=O)[C@H](C)NC(=O)[C@H](Cc2c[nH]c3ccccc23)NC(=O)[C@H](Cc2ccc(O)cc2)NC(=O)[C@H](CCC(=O)O)NC1=O)[C@@H](C)O [MP-5364] (Ac-KKK[Ahx]TSF[R8]EYWALL[S5]ENF-NH2; staple 8-15),0.0391 µM,62.33%,31.9 µM,> 50 µM,2.55 µM,,,,,,,,,TETCHO: Counterscreen % Effect ([2]; 0% FBS 16Hr): 3.12%; EC50 ([4]; 0% FBS 16Hr): 4.96 µM
CC(=O)N[C@@H](CCCCN=[N+]=[N-])C(=O)NCCC(=O)N[C@@H](CC(C)C)C(=O)N[C@H](C(=O)N[C@@H](Cc1ccccc1)C(=O)N[C@]1(C)CCCCCCC=CCCC[C@@](C)(C(=O)N[C@@H](C)C(=O)N[C@@H](C)C(=O)N[C@@H](Cc2ccccc2)C(=O)N[C@@H](C)C(=O)N[C@@](C)(CCC(=O)O)C(=O)N[C@@H](Cc2ccccc2)C(N)=O)NC(=O)[C@H](CC2CCC2)NC(=O)[C@H](CCC(N)=O)NC(=O)[C@H](C)NC(=O)[C@H](Cc2c[nH]c3ccccc23)NC(=O)[C@H](Cc2ccc(O)cc2)NC(=O)[C@H](CCC(=O)O)NC1=O)[C@@H](C)O [MP-229] (Ac-[Lys(N3)][βAla]LTF[R8]EYWAQ[Cba][S5]AAFA[αMeE]F-NH2; staple 6-13),,,,,,2.93,> 50.7 µM,19.9 µM,2.32 µM,153 µM,253 A^2,2.09 µM,,solubility kinetic [8]: 157 µM
CC(=O)N[C@H](C(=O)N[C@@H](CO)C(=O)N[C@@H](Cc1ccc2ccccc2c1)C(=O)N[C@]1(C)CCCCCCC=CCCC[C@@](C)(C(N)=O)NC(=O)[C@H](CC(C)C)NC(=O)[C@H](CC(C)C)NC(=O)[C@H](C)NC(=O)[C@H](Cc2c[nH]c3ccccc23)NC(=O)[C@H](Cc2ccc(O)cc2)NC(=O)[C@H](CCC(=O)O)NC1=O)[C@@H](C)O [MP-145] (Ac-TS[2Nal][R8]EYWALL[S5]-NH2; staple 4-11),4.33 µM,30.02%,> 50 µM,36.5 µM,23.8 µM,,,,,,,,48.85%,
CC(=O)N[C@H](C(=O)N[C@@H](CO)C(=O)N[C@@H](Cc1ccc2ccccc2c1)C(=O)N[C@]1(C)CCCCCCC=CCCC[C@@](C)(C(=O)N[C@@H](CCC(=O)O)C(N)=O)NC(=O)[C@H](CC(C)C)NC(=O)[C@H](CC(C)C)NC(=O)[C@H](C)NC(=O)[C@H](Cc2c[nH]c3ccccc23)NC(=O)[C@H](Cc2ccc(O)cc2)NC(=O)[C@H](CCC(=O)O)NC1=O)[C@@H](C)O [MP-146] (Ac-TS[2Nal][R8]EYWALL[S5]E-NH2; staple 4-11),0.499 µM,1.205%,> 50 µM,> 50 µM,43.3 µM,,,,,,,,16.49%,
CC(=O)N[C@H](C(=O)N[C@@H](CO)C(=O)N[C@@H](Cc1ccccc1)C(=O)N[C@]1(C)CCCCCCC=CCCC[C@@](C)(C(=O)N[C@@H](CCC(=O)O)C(N)=O)NC(=O)[C@H](CC(C)C)NC(=O)[C@H](CC(C)C)NC(=O)[C@H](C)NC(=O)[C@H](Cc2c[nH]c3ccccc23)NC(=O)[C@H](Cc2ccc(O)cc2)NC(=O)[C@H](CCC(=O)O)NC1=O)[C@@H](C)O [MP-139],< 0.001 µM,1.538%,> 50 µM,38.8 µM,6.25 µM,,,,,,,,20.87%,
CC(=O)N[C@@H](CCCCN=[N+]=[N-])C(=O)NCCC(=O)N[C@@H](CC(C)C)C(=O)N[C@H](C(=O)N[C@@H](Cc1ccccc1)C(=O)N[C@]1(C)CCCCCCC=CCCC[C@@](C)(C(=O)N[C@@H](C)C(=O)N[C@@H](C)C(=O)N[C@@H](Cc2ccccc2)C(=O)N[C@@H](C)C(=O)N[C@@H](C)C(=O)N[C@@H](Cc2ccccc2)C(N)=O)NC(=O)[C@H](CC2CCC2)NC(=O)[C@H](CCC(N)=O)NC(=O)[C@H](C)NC(=O)[C@H](Cc2c[nH]c3ccccc23)NC(=O)[C@H](Cc2ccc(O)cc2)NC(=O)[C@H](CCC(=O)O)NC1=O)[C@@H](C)O [MP-040] (Ac-[Lys(N3)][βAla]LTF[R8]EYWAQ[Cba][S5]AAFAAF-NH2; staple 6-13),,,,,,,> 50.7 µM,> 49.8 µM,1.22 µM,,204 A^2,0.439 µM,,"Partition Coeff LogD [5]: Poorly Behaved; Solubility [8]: P.B.; Solubility ([8]; pH 7, PBS): Poorly Behaved"
CC(=O)N[C@@H](CCCCN=[N+]=[N-])C(=O)NCCC(=O)N[C@@H](CC(C)C)C(=O)N[C@H](C(=O)N[C@@H](Cc1ccccc1)C(=O)N[C@]1(C)CCCCCCC=CCCC[C@@](C)(C(=O)N[C@@H](CO)C(=O)N[C@@H](C)C(=O)N[C@@H](CCC(=O)O)C(N)=O)NC(=O)[C@H](CC2CCC2)NC(=O)[C@H](CCC(N)=O)NC(=O)[C@H](C)NC(=O)[C@H](Cc2c[nH]c3ccccc23)NC(=O)[C@H](Cc2ccc(O)cc2)NC(=O)[C@H](CCC(=O)O)NC1=O)[C@@H](C)O [MP-524],,,,,,2.1,> 50.7 µM,> 49.8 µM,1.34 µM,148 µM,,1.32 µM,,EPSA [9]: Poorly Behaved
CC(=O)N[C@@H](CCCCN=[N+]=[N-])C(=O)NCCC(=O)N[C@@H](CC(C)C)C(=O)N[C@H](C(=O)N[C@@H](Cc1ccccc1)C(=O)N[C@]1(C)CCCCCCC=CCCC[C@@](C)(C(=O)N[C@@H](CO)C(=O)N[C@@H](C)C(=O)N[C@@H](C)C(N)=O)NC(=O)[C@H](CC2CCC2)NC(=O)[C@H](CCC(N)=O)NC(=O)[C@H](C)NC(=O)[C@H](Cc2c[nH]c3ccccc23)NC(=O)[C@H](CCC(=O)O)NC(=O)[C@H](CCC(=O)O)NC1=O)[C@@H](C)O [MP-842],,,,,,2.25,> 50.7 µM,> 49.8 µM,23.4 µM,157 µM,216 A^2,0.297 µM,,
CC(=O)N[C@@H](CCCCN=[N+]=[N-])C(=O)NCCC(=O)N[C@@H](CC(C)C)C(=O)N[C@H](C(=O)N[C@@H](Cc1ccccc1)C(=O)N[C@]1(C)CCCCCCC=CCCC[C@@](C)(C(=O)N[C@@H](C)C(=O)N[C@@H](C)C(=O)N[C@@H](Cc2ccccc2)C(=O)N[C@@H](C)C(=O)N[C@@H](C)C(=O)N[C@H](Cc2ccccc2)C(N)=O)NC(=O)[C@H](CC2CCC2)NC(=O)[C@H](CCC(N)=O)NC(=O)[C@H](C)NC(=O)[C@H](Cc2c[nH]c3ccccc23)NC(=O)[C@H](Cc2ccc(O)cc2)NC(=O)[C@H](CCC(=O)O)NC1=O)[C@@H](C)O [MP-063] (Ac-[Lys(N3)][βAla]LTF[R8]EYWAQ[Cba][S5]AAFAA[dF]-NH2; staple 6-13),,,,,,,> 50.7 µM,> 49.8 µM,2.78 µM,9 µM,199 A^2,0.394 µM,,
